The text below walks through data of paper PMC8868508, “Kassporin-KS1: A Novel Pentadecapeptide from the Skin Secretion of Kassina senegalensis: Studies on the Structure-Activity Relationships of Site-Specific “Glycine-Lysine” Motif Insertions” (Antibiotics, 2022).

In one data set the test system is E. faecalis NCTC 12697. The data set is classed as cell-based, Enterococcus faecalis. How it is done: (§1) The inhibition of representative microorganisms by peptides was evaluated by the modified broth dilution technique. The microorganisms included Candida albicans (C. albicans, NCTC 10231), Enterococcus faecalis (E. faecalis, NCTC 12697), Staphylococcus aureus (S. aureus, NCTC 10788), Klebsiella pneumoniae (K. pneumoniae, ATCC 43816), Methicillin-resistant Staphylococcus aureus (MRSA, ATCC 12493), Pseudomonas aeruginosa (P. aeruginosa, ATCC 27853), and Escherichia coli (E. coli, NCTC 10418).
(§2) Firstly, the selected microorganism was incubated in conical flasks with 100 mL Mueller Hinton broth (MHB) overnight. Then, the bacterial solution was sub-cultured in 20 mL MHB until it reached the logarithmic growth phase. Meanwhile, the peptide solution was prepared. The peptide was dissolved into 128 × 10^2 μM solution with phosphate-buffered saline (PBS) and then double-diluted into 64, 32, 16, 8, 4, 2, and 1 × 10^2 μM. Each sample solution and positive control ([…] Norfloxacin) was added to 96-well plates and divided into five replicates, 1 μL per well. The blank control was 100 µL MHB, and the growth control was 100 µL bacterial solutions. When the optical density (OD) value corresponding to the microbial concentration reached the value (Gram-positive bacteria: 0.23; Gram-negative bacteria: 0.4; fungi: 0.15) in their logarithmic growth phase, the microorganisms were diluted to the required concentration with MHB (Gram-negative and Gram-positive bacteria: 5 × 10^5 CFU/mL; fungi: 1 × 10^6 CFU/mL).
(§3) The diluted bacterial solution was then added to the 96-well plate at 99 µL per well. The plate was incubated at 37 °C and observed the next day. The MIC was the corresponding lowest peptide concentration without microbial growth. The absorbance of the 96-well plate at 550 nm was measured by Synergy HT Microplate Spectrophotometer (Biotech, Minneapolis, MN, USA), and the obtained values were quantitatively analyzed by Prism 7 software. Subsequently, the concentrations corresponding to the clear solution were removed from the 96-well plate in 10 µL and dropped onto the solidified MHA. The Petri dishes with MHA were cultured overnight, observed and the minimum peptide concentration without colonies was MBC.

The subject of a further data set is P. aeruginosa ATCC 27853. In kind it is cell-based, Pseudomonas aeruginosa. How it is done: as §1, §2, §3
The test system of a further data set is E. coli NCTC 10418. In kind it is cell-based, Escherichia coli. As for the experimental part:
as §1, §2, §3

The subject of data set [1] is S. aureus NCTC 10788 biofilm. In kind it is cell-based, Staphylococcus aureus. Conditions: NCTC 10788, 24 h. As for the experimental part:
(§4) As previously described, the MBIC and MBEC of the peptides against bacteria were determined. Staphylococcus aureus (S. aureus, NCTC 10788) and Escherichia coli (E. coli, NCTC 10418) was selected as representative strains. For the MBIC assay, the cultures were sub-cultured to their logarithmic growth phases. The diluted bacterial suspension was incubated with the peptide solution overnight in a 96-well plate. The resulting biofilm was washed with PBS solution, fixed with methanol, and dried. The biofilm was then stained with 0.1% (w/v) crystal violet, washed again with PBS, and dissolved in 30% acetic acid. The absorbance of the solution in each well at 595 nm was counted by the Synergy HT Microplate Spectrophotometer (Biotech, Minneapolis, MN, USA). Compared with the negative control, the lowest concentration that inhibits biofilm formation was MBIC. For the determination of MBEC, the diluted bacterial solution was incubated in the 96-well plate for 24 h, with 100 µL per well. Then, the biofilm was washed and re-incubated with 100 µL peptide-medium solution. After 24 h, the biofilm was again washed, stained, and dissolved as in the MBIC assay. Each well was detected at 595 nm by the same plate reader in MBIC. Compared with the negative control, the lowest concentration to eliminate biofilm was MBEC.

Data set [2] has as its system S. aureus NCTC 10788. In kind it is cell-based, Staphylococcus aureus. As for the experimental part: As mentioned in the previous study, the salt and pH sensitivities of AMPs exposed to physiological concentrations of salts or non-neutral environments were tested. MHB containing different ion concentrations (150 mM NaCl, 1 mM MgCl2, and 4 μM FeCl3) and MHB with pH 6.0 and pH 8.0 were prepared. The selected microorganism Staphylococcus aureus (S. aureus, NCTC 10788) was incubated overnight in the prepared medium, sub-cultured to the logarithmic phase, and then diluted to 5 × 10^5 CFU/mL. The subsequent steps were carried out as the MIC/MBC assay.

Data set [3] deals with S. aureus NCTC 10788. The data set is classed as cell-based, Staphylococcus aureus. How it is done: as §1, §2, §3
The source holds these as a separate data set.

Data set [4] relates to E. coli NCTC 10418 biofilm. The data set is classed as cell-based, Escherichia coli. Conditions: NCTC 10418, 24 h. How it is done: as §4
A further data set deals with K. pneumoniae ATCC 43816. In kind it is cell-based, Klebsiella pneumoniae. How it is done:
as §1, §2, §3

For the next data set, the system named is MRSA NCTC 12493. In kind it is cell-based, Methicillin-resistant Staphylococcus aureus.
In another data set the test system is C. albicans NCTC 10231. The data set is classed as cell-based, Candida albicans. As for the experimental part:
as §1, §2, §3

Data set [5] has as its system S. aureus infected Galleria mellonella larvae. Particulars: in vivo. How it is done:
Galleria mellonella larvae of equal weight were injected with bacterial suspensions to observe the peptides’ efficacy. First, the wax worm larvae were weighed (Livefood UK Ltd., Rooks Bridge, UK). The appropriate weight for the assay was 250 ± 25 mg. Then, S. aureus NCTC 10788 was cultured in sterilized saline until the bacterial suspension density reached 10^8 CFU/mL. […] Then, 10 µL peptide solutions were injected into the larvae at 6, 12, and 24 mg/kg. The positive control was the dosage of 20 mg/kg Vancomycin. The negative control was the administration of saline. In total, nine wax worms were included in each group. After being injected, the number of larvae deaths was recorded every 12 h until it reached 120 h.

Converted amounts (≈) assume the structure as drawn. Like-named read-outs stand apart in the source and are kept apart here. Where a SMILES comes first, the peptide text is derived from it.

With `CC[C@H](C)[C@H](NC(=O)[C@H](C)NC(=O)[C@H](CCC(=O)O)NC(=O)[C@H](CCC(N)=O)NC(=O)[C@H](CCCCN)NC(=O)CNC(=O)[C@H](C)NC(=O)[C@H](CC(C)C)NC(=O)[C@H](C)NC(=O)[C@H](CC(C)C)NC(=O)[C@@H](N)Cc1ccccc1)C(=O)N[C@@H](C)C(=O)N[C@@H](CCCCN)C(=O)N[C@@H](CC(C)C)C(=O)N[C@@H](CCCCN)C(N)=O` [QUB-1599] (H-FLALAGKQEAIAKLK-NH2), the MBC with E. faecalis NCTC 12697, with P. aeruginosa ATCC 27853, in the data set on E. coli NCTC 10418, against S. aureus NCTC 10788 [2], in the data set on S. aureus NCTC 10788 [3] and in the data set with K. pneumoniae ATCC 43816 was above 128 µM in each case. Further, the MBC in the data set with MRSA NCTC 12493 and in the data set with C. albicans NCTC 10231 was above 128 µM each time. For the same compound, the MIC with E. faecalis NCTC 12697, in the data set on P. aeruginosa ATCC 27853, with E. coli NCTC 10418, in the data set on S. aureus NCTC 10788 [2], with S. aureus NCTC 10788 [3] and in the data set on K. pneumoniae ATCC 43816 was above 128 µM in each case. The MIC in the data set on MRSA NCTC 12493 and in the data set with C. albicans NCTC 10231 was above 128 µM throughout. Further, the MBEC in data set [1] and in data set [4] was >128/>128 µM throughout. Further, the MBIC in [1] and in data set [4] was >128/>128 µM throughout.
Turning to `CC[C@H](C)[C@H](NC(=O)[C@H](C)NC(=O)[C@H](CCC(=O)O)NC(=O)[C@H](CCC(N)=O)NC(=O)[C@@H](NC(=O)[C@H](CC(C)C)NC(=O)[C@H](C)NC(=O)[C@H](CC(C)C)NC(=O)[C@H](C)NC(=O)[C@H](CC(C)C)NC(=O)[C@@H](N)Cc1ccccc1)[C@@H](C)CC)C(=O)N[C@@H](C)C(=O)N[C@@H](CCCCN)C(=O)N[C@@H](CC(C)C)C(=O)N[C@@H](CCCCN)C(N)=O` [QUB-1641] (H-FLALALIQEAIAKLK-NH2), the MBC in the data set with E. faecalis NCTC 12697 was 128 µM; with P. aeruginosa ATCC 27853, above 128 µM; in the data set on E. coli NCTC 10418, above 128 µM; against S. aureus NCTC 10788 [2], above 128 µM; in the data set on S. aureus NCTC 10788 [3], 64 µM; in the data set on K. pneumoniae ATCC 43816 it was above 128 µM. In addition, the MBC against MRSA NCTC 12493 is 128 µM (≈ 210 µg/mL); with C. albicans NCTC 10231, above 128 µM. Also, the MIC in the data set with E. faecalis NCTC 12697 is 64 µM; with P. aeruginosa ATCC 27853, above 128 µM; in the data set with E. coli NCTC 10418, above 128 µM; in the data set with S. aureus NCTC 10788 [3], 64 µM; in the data set with K. pneumoniae ATCC 43816, above 128 µM; against MRSA NCTC 12493, 64 µM (≈ 105 µg/mL). Moreover, in the data set with C. albicans NCTC 10231, the minimal inhibitory concentration (MIC) was above 128 µM. For the same compound, the “effect of injection on larvae” value in data set [5] is given as “causing the larvae to die directly after injection”. Moreover, the MBEC in data set [1] was 128/>128 µM; in data set [4] it was >128/>128 µM. The MBIC in data set [1] is given as 128/>128 µM; in data set [4] it was >128/>128 µM.

A word on the MIC: it is the least concentration at which growth counts as inhibited.
